# In patent US12655125B2 (SIRONAX LTD., priority 2020, dated 2026):
# pEC50: −log10 of the molar value.
# Tested on: HT-29 cells
# Assay: HT29 Cells 0FBS Assay In Vitro (TNF-α/SMAC mimetic/zVAD-FMK induced necroptosis, CellTiter-Glo cell viability)
# Format: cell-based
# Conditions: Homo sapiens; HT-29 cells, FBS free medium, TNF-α (10 ng/ml), SMAC mimetic (6 uM), zVAD-FMK (10 μM), 20 hours; geometric mean EC50; read-out: Cell activity (EC50) of Compounds 1-116
# Outline: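 Viability was measured by ATP luminescence (CellTiter-Glo) after 20 h at 37° C of compound exposure in 10-point, 1:3 dilutions. Necroptosis in FBS-free HT-29 cultures was driven by a TNF-α (10 ng/ml), SMAC mimetic (6 μM) and zVAD-FMK (10 μM) cocktail. EC50 values are geometric means from duplicate curves.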
row,SMILES,pEC50
1,"Cn1nccc1-c1ncc(F)c(OC2CN(C(=O)N3N=CC[C@H]3c3cc(F)cc(F)c3)C2)n1 [compound 2, (S)-(5-(3,5-difluorophenyl)-4,5-dihydro-1H-pyrazol-1-yl)(3-((5-fluoro-2-(1-methyl-1H-pyrazol-5-yl)pyrimidin-4-yl)oxy)azetidin-1-yl)methanone]",7.00 to 10.00
2,"Cn1ncc(NCC(=O)N2CCOCC2)c1-c1cc(OC2CN(C(=O)N3N=CC[C@H]3c3cc(F)cc(F)c3)C2)c(F)cn1 [compound 62, (S)-2-((5-(4-((1-(5-(3,5-difluorophenyl)-4,5-dihydro-1H-pyrazole-1-carbonyl)azetidin-3-yl)oxy)-5-fluoropyridin-2-yl)-1-methyl-1H-pyrazol-4-yl)amino)-1-morpholinoethan-1-one]",7.00 to 10.00
3,"Cc1nscc1-c1ccc(F)c(OC2CN(C(=O)N3N=CC[C@H]3c3cc(F)cc(F)c3)C2)n1 [compound 16, (S)-(5-(3,5-difluorophenyl)-4,5-dihydro-1H-pyrazol-1-yl)(3-((3-fluoro-6-(3-methylisothiazol-4-yl)pyridin-2-yl)oxy)azetidin-1-yl)methanone]",7.00 to 10.00
4,"Cn1ncc(C#N)c1-c1cc(OC2CN(C(=O)N3N=CC[C@H]3c3cc(F)cc(F)c3)C2)c(F)cn1 [compound 49, (S)-5-(4-((1-(5-(3,5-difluorophenyl)-4,5-dihydro-1H-pyrazole-1-carbonyl)azetidin-3-yl)oxy)-5-fluoropyridin-2-yl)-1-methyl-1H-pyrazole-4-carbonitrile]",7.00 to 10.00
5,"COC(=O)c1cnn(C)c1-c1cc(OC2CN(C(=O)N3N=CC[C@H]3c3cc(F)cc(F)c3)C2)c(F)cn1 [compound 64, methyl (S)-5-(4-((1-(5-(3,5-difluorophenyl)-4,5-dihydro-1H-pyrazole-1-carbonyl)azetidin-3-yl)oxy)-5-fluoropyridin-2-yl)-1-methyl-1H-pyrazole-4-carboxylate]",7.00 to 10.00
6,"Cc1nccn1-c1ncc(F)c(OC2CN(C(=O)N3N=CC[C@H]3c3cc(F)cc(F)c3)C2)n1 [compound 105, (S)-(5-(3,5-difluorophenyl)-4,5-dihydro-1H-pyrazol-1-yl)(3-((5-fluoro-2-(2-methyl-1H-imidazol-1-yl)pyrimidin-4-yl)oxy)azetidin-1-yl)methanone]",7.00 to 10.00
7,"CCC(=O)Nc1cnn(C)c1-c1cc(OC2CN(C(=O)N3N=CC[C@H]3c3cc(F)cc(F)c3)C2)c(F)cn1 [compound 58, (S)—N-(5-(4-((1-(5-(3,5-difluorophenyl)-4,5-dihydro-1H-pyrazole-1-carbonyl)azetidin-3-yl)oxy)-5-fluoropyridin-2-yl)-1-methyl-1H-pyrazol-4-yl)propionamide]",7.00 to 10.00
8,"Cc1nn(-c2cc(OC3CN(C(=O)N4N=CC[C@H]4c4cc(F)cc(F)c4)C3)c(F)cn2)c(C)c1[N+](=O)[O-] [compound 108, (S)-(5-(3,5-difluorophenyl)-4,5-dihydro-1H-pyrazol-1-yl)(3-((2-(3,5-dimethyl-4-nitro-1H-pyrazol-1-yl)-5-fluoropyridin-4-yl)oxy)azetidin-1-yl)methanone]",7.00 to 10.00
9,"Cn1nncc1-c1cc(OC2CN(C(=O)N3N=CC[C@H]3c3cc(F)cc(F)c3)C2)c(F)cn1 [compound 34, (S)-(5-(3,5-difluorophenyl)-4,5-dihydro-1H-pyrazol-1-yl)(3-((5-fluoro-2-(1-methyl-1H-1,2,3-triazol-5-yl)pyridin-4-yl)oxy)azetidin-1-yl)methanone]",7.00 to 10.00
10,"Cn1nccc1-c1cc(OC2CN(C(=O)N3N=CC[C@H]3c3cc(F)cc(F)c3)C2)c(F)cn1 [compound 3, (S)-(5-(3,5-difluorophenyl)-4,5-dihydro-1H-pyrazol-1-yl)(3-((5-fluoro-2-(1-methyl-1H-pyrazol-5-yl)pyridin-4-yl)oxy)azetidin-1-yl)methanone]",7.00 to 10.00
11,"N#Cc1cccn1-c1ncc(F)c(OC2CN(C(=O)N3N=CC[C@H]3c3cc(F)cc(F)c3)C2)n1 [compound 106, (S)-1-(4-((1-(5-(3,5-difluorophenyl)-4,5-dihydro-1H-pyrazole-1-carbonyl)azetidin-3-yl)oxy)-5-fluoropyrimidin-2-yl)-1H-pyrrole-2-carbonitrile]",7.00 to 10.00

# Same assay, conditions: Homo sapiens; HT-29 cells, FBS free medium, TNF-α (10 ng/ml), SMAC mimetic (6 uM), zVAD-FMK (10 μM), 20 hours; geometric mean EC50; read-out: Cell activity (EC50) of Compounds 117-281
row,SMILES,pEC50
1,"Cc1nn(-c2cc(OC3CN(C(=O)N4N=CC[C@H]4c4cc(F)cc(F)c4)C3)c(F)cn2)c(C)c1C(C)(C)C(=O)O [compound 279, (S)-2-(1-(4-((1-(5-(3,5-difluorophenyl)-4,5-dihydro-1H-pyrazole-1-carbonyl)azetidin-3-yl)oxy)-5-fluoropyridin-2-yl)-3,5-dimethyl-1H-pyrazol-4-yl)-2-methylpropanoic acid]",6.00 to 7.00
2,"Cc1nn(-c2cc(OC3CN(C(=O)N4N=CC[C@H]4c4cc(F)cc(F)c4)C3)c(F)cn2)c(C)c1S(C)(=O)=O [compound 190, (S)-(5-(3,5-difluorophenyl)-4,5-dihydro-1H-pyrazol-1-yl)(3-((2-(3,5-dimethyl-4-(methylsulfonyl)-1H-pyrazol-1-yl)-5-fluoropyridin-4-yl)oxy)azetidin-1-yl)methanone]",7.00 to 10.00
3,"COCCNc1nn(C)c(-c2cc(OC3CN(C(=O)N4N=CC[C@H]4c4cc(F)cc(F)c4)C3)c(F)cn2)c1C [compound 160, (S)-(5-(3,5-difluorophenyl)-4,5-dihydro-1H-pyrazol-1-yl)(3-((5-fluoro-2-(3-((2-methoxyethyl)amino)-1,4-dimethyl-1H-pyrazol-5-yl)pyridin-4-yl)oxy)azetidin-1-yl)methanone]",7.00 to 10.00
4,"Cc1c(N)nn(C)c1-c1ncc(F)c(OC2CN(C(=O)N3N=CC[C@H]3c3cc(F)cc(F)c3)C2)n1 [compound 207, (S)-(3-((2-(3-amino-1,4-dimethyl-1H-pyrazol-5-yl)-5-fluoropyrimidin-4-yl)oxy)azetidin-1-yl)(5-(3,5-difluorophenyl)-4,5-dihydro-1H-pyrazol-1-yl)methanone]",7.00 to 10.00
5,"Cc1cnn(C)c1-c1ccc(F)c(OC2CN(C(=O)N3N=CC[C@H]3c3cc(F)cc(F)c3)C2)n1 [compound 185, (S)-(5-(3,5-difluorophenyl)-4,5-dihydro-1H-pyrazol-1-yl)(3-((6-(1,4-dimethyl-1H-pyrazol-5-yl)-3-fluoropyridin-2-yl)oxy)azetidin-1-yl)methanone]",7.00 to 10.00
6,"Cc1ncc(C#N)n1-c1cc(OC2CN(C(=O)N3N=CC[C@H]3c3cc(F)cc(F)c3)C2)c(F)cn1 [compound 143, (S)-1-(4-((1-(5-(3,5-difluorophenyl)-4,5-dihydro-1H-pyrazole-1-carbonyl)azetidin-3-yl)oxy)-5-fluoropyridin-2-yl)-2-methyl-1H-imidazole-5-carbonitrile]",7.00 to 10.00
7,"Cc1nc(CO)sc1-c1cc(OC2CN(C(=O)N3N=CC[C@H]3c3cc(F)cc(F)c3)C2)c(F)cn1 [compound 180, (S)-(5-(3,5-difluorophenyl)-4,5-dihydro-1H-pyrazol-1-yl)(3-((5-fluoro-2-(2-(hydroxymethyl)-4-methylthiazol-5-yl)pyridin-4-yl)oxy)azetidin-1-yl)methanone]",7.00 to 10.00
8,"Cc1c(S(C)(=O)=O)nn(C)c1-c1cc(OC2CN(C(=O)N3N=CC[C@H]3c3cc(F)cc(F)c3)C2)c(F)cn1 [compound 177, (5-(3,5-difluorophenyl)-4,5-dihydro-1H-pyrazol-1-yl)(3-((2-(1,4-dimethyl-3-(methylsulfonyl)-1H-pyrazol-5-yl)-5-fluoropyridin-4-yl)oxy)azetidin-1-yl)methanone]",7.00 to 10.00
